In US20120101136A1, “5-MEMBERED HETEROARYL DERIVATIVES USED AS SPHINGOSINE 1- PHOSPHATE RECEPTOR AGONISTS” (GLAXO GROUP LIMITED, priority 2009, published 2012):

Target: T1, S1P1 receptor (human Endothelial Differentiation Gene 1 (EDG1)) (Homo sapiens, UniProt P21453)
T1 construct: TEV protease site; Gal4-VP16 transcription factor; expressed in transfected cells; host or cells: Tango GPCR-bla U2OS parental cell line (EDG1-bla/U2OS)
Test: S1P1 Tango Assay - 384 Well Format (EDG1-bla/U2OS cells)
Type: cell-based
Conditions: agonist, beta-lactamase reporter
Protocol: Recombinant EDG1-bla/U2OS cells (contain the human Endothelial Differentiation Gene 1 (EDG1) linked to a TEV protease site and a Gal4-VP16 transcription factor stably integrated into the Tango GPCR-bla U2OS parental cell line) were harvested from growth medium and passaged into assay medium (Invitrogen Freestyle Expression Medium). The cells were starved for 24 hours at 37° C., 5% CO2, harvested and resuspended in assay medium at a density of ˜200,000 cells/ml.
All test compounds were dissolved in DMSO at a concentration of 10 mM and were prepared in 100% DMSO to provide 10 point dose response curves. Test compounds prepared by Bravo (Velocity 11) were added to wells in columns 2-11 and 13-22; DMSO was added to wells in columns 12 and 23 as unstimulated controls and assay medium was added to wells in columns 1 and 24 as cell-free controls. An S1P1 agonist was added to wells in row 2, columns 2-11 as stimulated controls and test compounds were added to wells in row 2, columns 13-22 and rows 3-15, columns 2-11/13-22 (row 1 and 16 were empty and not used). Compounds in solution were added to the assay plate (Greiner 781090) using an Echo (Labcyte) dose-response program (50 nl/well). The unstimulated and cell-free controls were loaded with 50 nl/well pure DMSO to ensure that the DMSO concentration was constant across the plate for all assays.
50 μl of the cell suspension was added to each well in columns 2-23 of the plate (˜10,000 cells per well). 50 μl of assay medium was added to each well in the cell-free controls (columns 1 and 24). The cells were incubated overnight at 37° C./5% CO2.
10 μl of 6× substrate mixture (LiveBLAzer™-FRET B/G substrate (CCF4-AM) Cat # K1096 from Invitrogen, Inc.) was added to each well using Bravo and the plates incubated at room temperature for 2 h in the dark. The plate was finally read on EnVision using one excitation channel (409 nm) and two emission channels (460 nm and 530 nm).
The blue/green emission ratio (460 nm/530 nm) was calculated for each well, by dividing the background-subtracted Blue emission values by the background-subtracted Green emission values. The dose response curve is based on sigmoidal dose-response model. All ratio data was normalized based upon the maximum emission ratio of positive control and minimum emission ratio of negative control (DMSO) on each plate. The intrinsic activity (IA) of each compound would be the normalized percentage of its maximum response after curve fitting.

T1 sequence (P21453 whole entry, the tested form may be a part): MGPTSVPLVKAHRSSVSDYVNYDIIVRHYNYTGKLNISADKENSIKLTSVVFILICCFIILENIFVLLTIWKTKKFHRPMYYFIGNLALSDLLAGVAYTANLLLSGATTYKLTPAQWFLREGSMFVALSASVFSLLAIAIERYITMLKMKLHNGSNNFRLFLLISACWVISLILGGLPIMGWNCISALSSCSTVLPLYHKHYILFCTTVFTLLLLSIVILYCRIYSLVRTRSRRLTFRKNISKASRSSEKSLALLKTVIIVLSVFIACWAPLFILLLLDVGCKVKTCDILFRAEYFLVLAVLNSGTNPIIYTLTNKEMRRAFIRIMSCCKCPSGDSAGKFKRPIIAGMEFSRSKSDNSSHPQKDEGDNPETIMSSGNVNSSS

EC50 [nM] | Structure (SMILES)
≤ 1 | CCc1cc(OCCCC(=O)O)ccc1-c1nnc(-c2ccc(OC(C)C)c(C#N)c2)s1 [Example 16, 4-{[4-(5-{3-cyano-4-[(1-methylethyl)oxy]phenyl}-1,3,4-thiadiazol-2-yl)-3-ethylphenyl]oxy}butanoic acid]
≤ 10 | CC(C)Oc1ccc(-c2nc(-c3ccc(OCCCCN(C)C)cc3Cl)no2)cc1C#N [Example 17, 5-[3-(2-chloro-4-{[4-(dimethylamino)butyl]oxy}phenyl)-1,2,4-oxadiazol-5-yl]-2-[(1-methylethyl)oxy]benzonitrile]
≤ 10 | CC(C)NCCCCOc1ccc(-c2noc(-c3ccc(OC(C)C)c(C#N)c3)n2)c(Cl)c1 [Example 18, 5-{3-[2-chloro-4-({4-[(1-methylethyl)amino]butyl}oxy)phenyl]-1,2,4-oxadiazol-5-yl}-2-[(1-methylethyl)oxy]benzonitrile]
≤ 10 | CCCNCCCCOc1ccc(-c2noc(-c3ccc(OC(C)C)c(C#N)c3)n2)c(Cl)c1 [Example 19, 5-[3-(2-chloro-4-{[4-(propylamino)butyl]oxy}phenyl)-1,2,4-oxadiazol-5-yl]-2-[(1-methylethyl)oxy]benzonitrile]
≤ 10 | CCNCCCCOc1ccc(-c2noc(-c3ccc(OC(C)C)c(C#N)c3)n2)c(Cl)c1 [Example 20, 5-[3-(2-chloro-4-{[4-(ethylamino)butyl]oxy}phenyl)-1,2,4-oxadiazol-5-yl]-2-[(1-methylethyl)oxy]benzonitrile]
≤ 1 | CNCCCCOc1ccc(-c2noc(-c3ccc(OC(C)C)c(C#N)c3)n2)c(Cl)c1 [Example 21, 5-[3-(2-chloro-4-{[4-(methylamino)butyl]oxy}phenyl)-1,2,4-oxadiazol-5-yl]-2-[(1-methylethyl)oxy]benzonitrile]
≤ 0.1 | CC(C)Oc1ccc(-c2nc(-c3ccc(OCCCC(=O)O)cc3F)no2)cc1C#N [Example 22, 4-{[4-(5-{3-cyano-4-[(1-methylethyl)oxy]phenyl}-1,2,4-oxadiazol-3-yl)-3-fluorophenyl]oxy}butanoic acid]
≤ 100 | CC(C)Oc1ccc(-c2nc(-c3ccc(OCC(=O)O)cc3F)no2)cc1C#N [Example 23, {[4-(5-{3-cyano-4-[(1-methylethyl)oxy]phenyl}-1,2,4-oxadiazol-3-yl)-3-fluorophenyl]oxy}acetic acid]
≤ 1 | CC(C)Oc1ccc(-c2nc(-c3ccc(OCCCC(=O)O)cc3)no2)cc1C#N [Example 24, 4-{[4-(5-{3-cyano-4-[(1-methylethyl)oxy]phenyl}-1,2,4-oxadiazol-3-yl)phenyl]oxy}butanoic acid]
≤ 100 | CC(C)Oc1ccc(-c2nc(-c3ccc(OCC(=O)O)cc3)no2)cc1C#N [Example 25, {[4-(5-{3-cyano-4-[(1-methylethyl)oxy]phenyl}-1,2,4-oxadiazol-3-yl)phenyl]oxy}acetic acid]
≤ 10 | CCc1cc(OCCNC)ccc1-c1noc(-c2ccc(OC(C)C)c(Cl)c2)n1 [Example 26, (2-{[4-(5-{3-chloro-4-[(1-methylethyl)oxy]phenyl}-1,2,4-oxadiazol-3-yl)-3-ethylphenyl]oxy}ethyl)methylamine]
≤ 1 | CCc1cc(OCC(=O)O)ccc1-c1noc(-c2ccc(OC(C)C)c(C#N)c2)n1 [Example 27, {[4-(5-{3-cyano-4-[(1-methylethyl)oxy]phenyl}-1,2,4-oxadiazol-3-yl)-3-ethylphenyl]oxy}acetic acid]
≤ 1 | CCc1cc(OCC(=O)O)ccc1-c1noc(-c2ccc(OC(C)C)c(Cl)c2)n1 [Example 28, {[4-(5-{3-chloro-4-[(1-methylethyl)oxy]phenyl}-1,2,4-oxadiazol-3-yl)-3-ethylphenyl]oxy}acetic acid]
≤ 1 | CCc1cc(OCCCCC(=O)O)ccc1-c1noc(-c2ccc(OC(C)C)c(Cl)c2)n1 [Example 29, 5-{[4-(5-{3-chloro-4-[(1-methylethyl)oxy]phenyl}-1,2,4-oxadiazol-3-yl)-3-ethylphenyl]oxy}pentanoic acid]
